Measured values as given in publication PMC11274883, “Anticancer Effect of Pt^[sequence], Pt^II5MESS, Pt^II56MESS and Their Platinum(IV)-Dihydroxy Derivatives against Triple-Negative Breast Cancer and Cisplatin-Resistant Colorectal Cancer” (Cancers, 2024).

Legend:
Type in all cases: cell-based
HT29 cells [1] = experiment: DCFDA cellular ROS detection assay; details: complexes at IC50, TBHP 20 µM
Procedure, shortened: (§1)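 Cells seeded at 2500 cells/well overnight, then loaded with 25 µM DCFH-DA for 45 min. DCF fluorescence (ex/em 485/535 nm, RFU) read at multiple time points; 20 µM TBHP served as positive control. Three independent experiments in triplicate.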

MDA−MB−231 cells [2] = experiment: DCFDA cellular ROS detection assay; details: complexes at IC50, TBHP 20 µM
Procedure, shortened: as §1

HT29 cells [3] = experiment: Cellular uptake of Pt by ICP-MS; details: for Intracellular Concentration: HT29, 3 µM; for Intracellular/extracellular ratio: HT29, extracellular 3 µM
Procedure: (§2) A final concentration of 10^6 cells/well of MDA−MB−231 and HT29 cells were seeded in 6-well plates and incubated overnight to adhere. The cells were then treated with a final concentration of 3 µM of either Pt^II or Pt^IV complexes. After 0, 0.5, 1, 3, 6, 12, 24 or 30 h, the medium was removed, and the cells were washed three times with cold PBS and allowed to dry. Then, 400 µL of 69% HNO3 (Baseline grade nitric acid with PPB level reported impurities, Seastar Chemicals, Sidney, BC, Canada) was added to each well for 90 min to ensure complete digestion. […] Iridium 193 (^193Ir) was mixed online and introduced into the ICP-MS to check uptake efficiency and matrix interference. All ICP-MS parameters are described in Table S2 and elaborated in Method S3. The results represent an average of three different experiments run in triplicate (±SEM) and expressed as nmol/10^6 cells or µM/cell. Quantification of the cellular uptake of Pt was based on external standards (Certified Standard from Sigma-Aldrich, VIC, Australia) containing Internal standard Ir.
(§3) Method S3. Cellular Uptake of Platinum(II) and (IV) complexes
(§4) A final concentration of 10^6 cells/well of MDA−MB−231 and HT29 cells were seeded in 6-well plates and incubated overnight to adhere. The cells were then treated with a final concentration of 3 µM of either PtII or PtIV complexes. After 0, 0.5, 1, 3, 6, 12, 24 or 30 h, the medium was removed, and the cells were washed three times with cold PBS and allowed to dry. Then, 400 µL of 69% HNO3 (Baseline grade nitric acid with Instrument Quality Grade Nitric acid with ppb level reported impurities, Seastar Chemicals, Sidney, Canada) was added to each well for 90 mins to ensure complete digestion. The digests were then moved to trace -metal free 15 mL centrifuge tubes […]
(§5) concentration of 3.5-4%. Iridium 193 (193Ir), selected as internal standard, has similar first ionisation potential and mass to Platinum 195 (195Pt). A concentration of 50 ppb 193Ir in 2% HNO3 solution was chosen for the Perkin Elmer NexION® Inductively Coupled Plasma Mass Spectrometer (ICP-MS) as it produced a steady state signal intensity of 600-800K counts per second. Mixing and injection of sample and internal standard solution was carried out using an ESI 7 port Valve system (Elemental Scientific, USA). A high-quality Solvent Flex 2 stop pump with 0.38 mm ID tubing was used in conjunction with the ICP-MS’s Peristaltic pump set at 20 […]
(§6) standard both, at 0.25 mL/min) being 0.5 mL/min. The ICP-MS was tuned to high sensitivity settings to facilitate detection of low Pt concentrations in samples. This was done by adjusting the nebuliser gas flow between […] to achieve maximum Indium 115 intensity whilst maintaining an acceptable average oxide and doubly charged ratio of 1.64-2.24% and 1.17-1.69% respectively. The analysis method was set to peak hopping mode with a dwell time of […] and 45 sweeps through the mass spectrum per sample read. […]
(§7) peak integration time of 4500 milliseconds and enabled the collection of numerous data points for peak integration thereby increasing accuracy. The ICP-MS was tuned daily, and its performance optimised to a set of suppliers recommended settings. Analysis was only carried out when optimal oxide and doubly charged ratios with high ionic sensitivity was achieved. All ICP-MS parameters are described in Table S2. The results represent an average of three different experiments run in triplicates (± SEM) and expressed as nmol/106 cells or µM/cell. Quantification of the cellular uptake of Pt was based on external standards (Certified Standard from Sigma-Aldrich NSW, Australia) containing Internal standard Ir. […]

MDA−MB−231 cells [4] = experiment: Cellular uptake of Pt by ICP-MS; details: for Intracellular Concentration: MDA−MB−231, 3 µM; for Intracellular/extracellular ratio: MDA−MB−231, extracellular 3 µM
Procedure: as §2, §3, §4, §5, §6, §7

MCF10A = experiment: WST-1 cytotoxicity, 72 h; details: mean ± SEM
Procedure: Cells were seeded in 96-well flat-bottom culture plates at a concentration of 1000 cells per well. […] After 72 h, the medium was removed and replaced with new medium. The cell viability reagent WST-1 (10 µL, Roche Diagnostics, Indianapolis, IN, USA) was added to each well. After an hour, the absorbance was measured at 450 nm using a versatile microplate reader (Bio-strategy, Campbellfield, VIC, Australia). Three separate experiments were performed, each with n = 3 replicates. GraphPad prism 10 was used to calculate apparent IC50 values using the nonlinear regression model Y = Bottom + (Top-Bottom)/(1 + 10^(X-LogIC50)) where Top and bottom are plateaus in the y-axis (% survival). The R^2 value of the curve fits ranged from 0.8972 to 0.9794.

Structure (SMILES) | ROS production (HT29 cells [1]; HT29, 24 h) | ROS production (HT29 cells [1]; HT29, 48 h) | ROS production (HT29 cells [1]; HT29, 72 h) | ROS production (MDA−MB−231 cells [2]; MDA−MB−231, 24 h) | ROS production (MDA−MB−231 cells [2]; MDA−MB−231, 48 h) | ROS production (MDA−MB−231 cells [2]; MDA−MB−231, 72 h) | Intracellular Concentration (HT29 cells [3]; 0 h) | Intracellular Concentration (HT29 cells [3]; 0.5 h) | Intracellular Concentration (HT29 cells [3]; 1 h) | Intracellular Concentration (HT29 cells [3]; 3 h) | Intracellular Concentration (HT29 cells [3]; 6 h) | Intracellular Concentration (HT29 cells [3]; 12 h) | Intracellular Concentration (HT29 cells [3]; 24 h) | Intracellular Concentration (HT29 cells [3]; 30 h) | Intracellular Concentration (MDA−MB−231 cells [4]; 0 h) | Intracellular Concentration (MDA−MB−231 cells [4]; 0.5 h) | Intracellular Concentration (MDA−MB−231 cells [4]; 1 h) | Intracellular Concentration (MDA−MB−231 cells [4]; 3 h) | Intracellular Concentration (MDA−MB−231 cells [4]; 6 h) | Intracellular Concentration (MDA−MB−231 cells [4]; 12 h) | further results
N[C@H]1CCCC[C@@H]1N.O=[N+]([O-])[O-].O=[N+]([O-])[O-].[OH-].[OH-].[Pt+4].c1cnc2c(c1)ccc1cccnc12 [[Pt(1,10-phenanthroline)(1S,2S-diaminocyclohexane)(dihydroxy)](NO3)2] | 182.77 RFU | 217.33 RFU | 242.44 RFU | 196.62 RFU | 256.83 RFU | 275.09 RFU | 0.10 nmol/10^6 cells | 0.10 nmol/10^6 cells | 0.18 nmol/10^6 cells | 0.33 nmol/10^6 cells | 0.77 nmol/10^6 cells | 3.64 nmol/10^6 cells | 5.18 nmol/10^6 cells | 5.79 nmol/10^6 cells | 0.13 nmol/10^6 cells | 0.13 nmol/10^6 cells | 0.223 nmol/10^6 cells | 0.16 nmol/10^6 cells | 0.25 nmol/10^6 cells | 0.63 nmol/10^6 cells | Intracellular/extracellular ratio (HT29 cells [3]; 0 h): 16.45; Intracellular/extracellular ratio (HT29 cells [3]; 0.5 h): 15.93; Intracellular/extracellular ratio (HT29 cells [3]; 1 h): 28.08; Intracellular/extracellular ratio (HT29 cells [3]; 3 h): 51.34; Intracellular/extracellular ratio (HT29 cells [3]; 6 h): 121.19; Intracellular/extracellular ratio (HT29 cells [3]; 12 h): 571.26; Intracellular/extracellular ratio (HT29 cells [3]; 24 h): 813.09; Intracellular/extracellular ratio (HT29 cells [3]; 30 h): 909.81; Intracellular Concentration (MDA−MB−231 cells [4]; 24 h): 0.78 nmol/10^6 cells; Intracellular Concentration (MDA−MB−231 cells [4]; 30 h): 1.29 nmol/10^6 cells; Intracellular/extracellular ratio (MDA−MB−231 cells [4]; 0 h): 21.21; Intracellular/extracellular ratio (MDA−MB−231 cells [4]; 0.5 h): 20.07; Intracellular/extracellular ratio (MDA−MB−231 cells [4]; 1 h): 35.47; Intracellular/extracellular ratio (MDA−MB−231 cells [4]; 3 h): 26.14; Intracellular/extracellular ratio (MDA−MB−231 cells [4]; 6 h): 38.82; Intracellular/extracellular ratio (MDA−MB−231 cells [4]; 12 h): 98.56; Intracellular/extracellular ratio (MDA−MB−231 cells [4]; 24 h): 123.87; Intracellular/extracellular ratio (MDA−MB−231 cells [4]; 30 h): 203.38; IC50 (MCF10A): 20.5 ± 1.32 µM
N.N.[Cl][Pt][Cl] [Cisplatin, cisplatin] | 205.39 RFU | 285.11 RFU | 316.55 RFU | 279.82 RFU | 325.96 RFU | 369.97 RFU | 0.36 nmol/10^6 cells | 0.94 nmol/10^6 cells | 0.14 nmol/10^6 cells | 0.28 nmol/10^6 cells | 0.10 nmol/10^6 cells | 0.57 nmol/10^6 cells | 1.02 nmol/10^6 cells | 0.71 nmol/10^6 cells | 0.56 nmol/10^6 cells | 0.15 nmol/10^6 cells | 0.14 nmol/10^6 cells | 0.12 nmol/10^6 cells | 0.18 nmol/10^6 cells | 0.19 nmol/10^6 cells | Intracellular Concentration (MDA−MB−231 cells [4]; 24 h): 0.24 nmol/10^6 cells; Intracellular Concentration (MDA−MB−231 cells [4]; 30 h): 1.29 nmol/10^6 cells; IC50 (MCF10A): 4.71 ± 1.47 µM
